What was measured:
[1] = molecular target: High affinity nerve growth factor receptor (Homo sapiens) (UniProt P04629); assay: Inhibition of human TRKA using poly[Glu:Tyr] (4:1) as substrate at 1 uM in presence of 32P-ATP by Hotspot assay relative to control
[2] = molecular target: Misshapen-like kinase 1 (Homo sapiens) (UniProt Q8N4C8); assay: Residual activity of human MINK/MINK1 using myelin basic protein as substrate at 1 uM in presence of 32P-ATP by Hotspot assay relative to control
[3] = molecular target: LIM domain kinase 1 (Homo sapiens) (UniProt P53667); assay: Inhibition of human LIMK1 using cofilin 1 as substrate at 1 uM in presence of 32P-ATP by Hotspot assay relative to control; values are per cent of control
Chain of LIM domain kinase 1 (Homo sapiens) (P53667 whole entry, looked up, the tested form may be a part): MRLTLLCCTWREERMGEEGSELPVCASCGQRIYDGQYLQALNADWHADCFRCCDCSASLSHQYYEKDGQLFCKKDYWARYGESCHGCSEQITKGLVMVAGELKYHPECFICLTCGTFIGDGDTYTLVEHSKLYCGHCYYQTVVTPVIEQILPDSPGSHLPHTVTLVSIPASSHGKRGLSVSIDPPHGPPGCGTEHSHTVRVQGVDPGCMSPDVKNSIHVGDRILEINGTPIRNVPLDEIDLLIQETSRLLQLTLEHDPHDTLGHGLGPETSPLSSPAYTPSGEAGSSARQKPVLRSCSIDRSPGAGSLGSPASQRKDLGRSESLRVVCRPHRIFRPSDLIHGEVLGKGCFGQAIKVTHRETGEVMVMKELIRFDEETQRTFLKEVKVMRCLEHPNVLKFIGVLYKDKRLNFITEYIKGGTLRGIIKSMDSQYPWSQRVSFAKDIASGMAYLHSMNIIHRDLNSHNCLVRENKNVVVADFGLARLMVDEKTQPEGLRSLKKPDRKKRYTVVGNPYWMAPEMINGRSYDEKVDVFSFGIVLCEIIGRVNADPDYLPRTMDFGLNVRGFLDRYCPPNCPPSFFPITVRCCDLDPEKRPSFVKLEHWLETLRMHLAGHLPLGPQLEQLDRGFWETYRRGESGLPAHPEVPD

[4] = molecular target: Ribosomal protein S6 kinase alpha-2 (Homo sapiens) (UniProt Q15349); assay: Inhibition of human RSK3 using KKLNRTLSVA as substrate at 1 uM in presence of 32P-ATP by Hotspot assay relative to control; values are per cent of control
Chain of Ribosomal protein S6 kinase alpha-2 (Homo sapiens) (Q15349 whole entry): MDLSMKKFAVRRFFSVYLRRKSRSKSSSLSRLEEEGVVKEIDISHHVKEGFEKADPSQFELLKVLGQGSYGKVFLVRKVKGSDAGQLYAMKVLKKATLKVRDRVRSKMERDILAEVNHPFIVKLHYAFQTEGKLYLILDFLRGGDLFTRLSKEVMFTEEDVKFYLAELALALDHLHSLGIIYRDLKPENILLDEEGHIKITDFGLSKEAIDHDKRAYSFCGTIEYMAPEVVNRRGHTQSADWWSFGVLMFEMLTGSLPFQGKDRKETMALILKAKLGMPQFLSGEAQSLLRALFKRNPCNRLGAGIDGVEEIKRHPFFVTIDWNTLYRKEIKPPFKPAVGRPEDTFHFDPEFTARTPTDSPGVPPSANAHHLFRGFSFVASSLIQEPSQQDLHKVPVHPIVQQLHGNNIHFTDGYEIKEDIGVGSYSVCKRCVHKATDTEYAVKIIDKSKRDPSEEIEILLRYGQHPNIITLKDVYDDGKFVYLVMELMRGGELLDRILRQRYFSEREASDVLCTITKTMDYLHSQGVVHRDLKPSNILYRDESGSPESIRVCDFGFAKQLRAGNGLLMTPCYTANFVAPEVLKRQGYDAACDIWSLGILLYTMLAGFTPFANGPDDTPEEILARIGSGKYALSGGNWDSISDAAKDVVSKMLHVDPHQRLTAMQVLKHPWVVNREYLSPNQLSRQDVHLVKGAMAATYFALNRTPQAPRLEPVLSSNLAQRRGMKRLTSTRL

[5] = molecular target: Maternal embryonic leucine zipper kinase (Homo sapiens) (UniProt Q14680); assay: Inhibition of human MELK using KKLNRTLSFAEPG as substrate at 1 uM in presence of 32P-ATP by Hotspot assay relative to control; values are per cent of control
[6] = molecular target: T1, Serine/threonine-protein kinase Sgk2 (Homo sapiens) (UniProt Q9HBY8); assay: Inhibition of human SGK2 using KGSGSGRPRTSSFAEG as substrate at 1 uM in presence of 32P-ATP by Hotspot assay relative to control; values are per cent of control
T1 sequence (whole entry): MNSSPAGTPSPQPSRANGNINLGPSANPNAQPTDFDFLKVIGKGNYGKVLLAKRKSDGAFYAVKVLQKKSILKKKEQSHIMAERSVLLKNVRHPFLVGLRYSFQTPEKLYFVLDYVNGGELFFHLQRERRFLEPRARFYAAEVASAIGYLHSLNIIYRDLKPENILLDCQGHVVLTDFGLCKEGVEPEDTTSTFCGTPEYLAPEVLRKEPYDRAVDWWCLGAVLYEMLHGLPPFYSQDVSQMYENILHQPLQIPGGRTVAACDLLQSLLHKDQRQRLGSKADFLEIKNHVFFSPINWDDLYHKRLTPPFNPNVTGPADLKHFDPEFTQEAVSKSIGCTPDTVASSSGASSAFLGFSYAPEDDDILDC

[7] = molecular target: Mitogen-activated protein kinase kinase kinase 8 (Homo sapiens) (UniProt P41279); assay: Inhibition of human COT1/MAP3K8 using MEK1 (K97R) as substrate at 1 uM in presence of 32P-ATP by Hotspot assay relative to control; values are per cent of control
Chain of Mitogen-activated protein kinase kinase kinase 8 (Homo sapiens) (P41279 whole entry): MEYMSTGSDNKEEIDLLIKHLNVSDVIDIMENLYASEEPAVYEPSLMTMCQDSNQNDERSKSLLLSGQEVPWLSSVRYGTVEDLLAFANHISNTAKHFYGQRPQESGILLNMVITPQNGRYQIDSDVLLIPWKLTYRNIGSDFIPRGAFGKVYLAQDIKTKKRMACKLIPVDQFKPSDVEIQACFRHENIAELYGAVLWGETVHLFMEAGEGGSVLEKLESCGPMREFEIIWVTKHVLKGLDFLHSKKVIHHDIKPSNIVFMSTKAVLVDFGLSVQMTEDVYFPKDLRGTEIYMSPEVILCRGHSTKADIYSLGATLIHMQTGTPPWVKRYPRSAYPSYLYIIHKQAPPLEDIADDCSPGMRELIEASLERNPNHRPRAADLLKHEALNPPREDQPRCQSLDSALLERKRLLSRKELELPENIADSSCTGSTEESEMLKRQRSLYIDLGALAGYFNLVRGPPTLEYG

[8] = molecular target: Cyclin-dependent kinase 2/cyclin E1 (Homo sapiens) (UniProt P24864+P24941); assay: Inhibition of human CDK2/cyclin E using RB Protein as substrate at 1 uM in presence of 32P-ATP by Hotspot assay relative to control; values are per cent of control
[9] = molecular target: Dual specificity protein kinase CLK1 (Homo sapiens) (UniProt P49759); assay: Inhibition of human CLK1 using myelin basic protein as substrate at 1 uM in presence of 32P-ATP by Hotspot assay relative to control; values are per cent of control
Chain of Dual specificity protein kinase CLK1 (Homo sapiens) (P49759 whole entry, looked up): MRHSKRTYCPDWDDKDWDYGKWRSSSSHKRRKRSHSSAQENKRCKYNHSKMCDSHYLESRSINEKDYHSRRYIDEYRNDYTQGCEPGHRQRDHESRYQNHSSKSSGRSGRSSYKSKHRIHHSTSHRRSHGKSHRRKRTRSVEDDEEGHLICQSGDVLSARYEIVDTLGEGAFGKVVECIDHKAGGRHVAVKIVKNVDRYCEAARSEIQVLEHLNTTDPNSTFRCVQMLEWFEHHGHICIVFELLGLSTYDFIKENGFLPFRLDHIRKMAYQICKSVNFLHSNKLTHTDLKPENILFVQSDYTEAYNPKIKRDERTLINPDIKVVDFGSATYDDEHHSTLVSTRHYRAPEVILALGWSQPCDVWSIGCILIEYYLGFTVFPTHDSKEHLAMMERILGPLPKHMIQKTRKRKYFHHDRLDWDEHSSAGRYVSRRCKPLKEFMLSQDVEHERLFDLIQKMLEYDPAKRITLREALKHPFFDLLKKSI

[10] = molecular target: Serine/threonine-protein kinase Chk2 (Homo sapiens) (UniProt O96017); assay: Inhibition of human CHK2 using KKKVSRSGLYRSPSMPENLNRPR as substrate at 1 uM in presence of 32P-ATP by Hotspot assay relative to control; values are per cent of control
Chain of Serine/threonine-protein kinase Chk2 (Homo sapiens) (O96017 whole entry): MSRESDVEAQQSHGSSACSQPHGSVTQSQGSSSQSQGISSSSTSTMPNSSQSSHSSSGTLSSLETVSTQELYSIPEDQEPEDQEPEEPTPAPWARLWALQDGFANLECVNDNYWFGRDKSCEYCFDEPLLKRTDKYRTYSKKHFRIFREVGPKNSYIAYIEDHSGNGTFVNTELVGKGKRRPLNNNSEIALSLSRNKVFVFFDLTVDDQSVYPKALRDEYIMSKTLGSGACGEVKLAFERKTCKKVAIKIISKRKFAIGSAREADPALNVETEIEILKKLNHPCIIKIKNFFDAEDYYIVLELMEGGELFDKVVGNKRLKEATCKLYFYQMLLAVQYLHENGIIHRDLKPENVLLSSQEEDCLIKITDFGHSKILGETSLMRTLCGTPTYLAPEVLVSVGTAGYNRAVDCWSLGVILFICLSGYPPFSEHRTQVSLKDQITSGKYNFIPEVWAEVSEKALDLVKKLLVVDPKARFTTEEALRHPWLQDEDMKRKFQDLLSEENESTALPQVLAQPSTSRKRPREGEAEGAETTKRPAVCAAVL

[11] = molecular target: Serine/threonine-protein kinase MARK1 (Homo sapiens) (UniProt Q9P0L2); assay: Inhibition of human MARK1 using KKKVSRSGLYRSPSMPENLNRPR as substrate at 1 uM in presence of 32P-ATP by Hotspot assay relative to control; values are per cent of control
[12] = molecular target: T2, MAP/microtubule affinity-regulating kinase 4 (Homo sapiens) (UniProt Q96L34); assay: Inhibition of human MARK4 using KKKVSRSGLYRSPSMPENLNRPR as substrate at 1 uM in presence of 32P-ATP by Hotspot assay relative to control; values are per cent of control
T2 sequence (whole entry): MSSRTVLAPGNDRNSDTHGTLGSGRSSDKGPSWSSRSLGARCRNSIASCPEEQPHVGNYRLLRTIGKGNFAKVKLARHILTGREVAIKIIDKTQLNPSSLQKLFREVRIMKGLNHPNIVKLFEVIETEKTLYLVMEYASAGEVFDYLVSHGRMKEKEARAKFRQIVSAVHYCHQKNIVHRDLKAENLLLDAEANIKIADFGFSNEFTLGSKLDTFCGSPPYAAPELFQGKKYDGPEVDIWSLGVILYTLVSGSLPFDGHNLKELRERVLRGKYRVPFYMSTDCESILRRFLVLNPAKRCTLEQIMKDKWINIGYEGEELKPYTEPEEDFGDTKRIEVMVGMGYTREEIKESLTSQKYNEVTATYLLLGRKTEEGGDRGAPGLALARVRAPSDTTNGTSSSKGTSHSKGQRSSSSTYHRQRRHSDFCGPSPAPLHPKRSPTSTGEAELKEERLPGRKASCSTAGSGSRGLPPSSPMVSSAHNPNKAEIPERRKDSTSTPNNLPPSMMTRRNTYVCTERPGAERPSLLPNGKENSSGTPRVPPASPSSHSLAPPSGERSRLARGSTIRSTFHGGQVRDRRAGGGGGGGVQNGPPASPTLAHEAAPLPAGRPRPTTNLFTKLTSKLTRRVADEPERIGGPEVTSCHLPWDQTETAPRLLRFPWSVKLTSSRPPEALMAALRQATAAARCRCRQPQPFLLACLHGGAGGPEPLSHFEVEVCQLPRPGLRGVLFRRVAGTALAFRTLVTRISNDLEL

[13] = molecular target: Vascular endothelial growth factor receptor 1 (Homo sapiens) (UniProt P17948); assay: Inhibition of human FLT1/VEGFR1 using poly[Glu:Tyr] (4:1) as substrate at 1 uM in presence of 32P-ATP by Hotspot assay relative to control; values are per cent of control
[14] = molecular target: Serine/threonine-protein kinase OSR1 (Homo sapiens) (UniProt O95747); assay: Inhibition of human OSR1/OXSR1 using RRHYYYDTHTNTYYLRTFGHNTRR as substrate at 1 uM in presence of 32P-ATP by Hotspot assay relative to control; values are per cent of control

Chain of High affinity nerve growth factor receptor (Homo sapiens) (P04629 33-796 limits assumed): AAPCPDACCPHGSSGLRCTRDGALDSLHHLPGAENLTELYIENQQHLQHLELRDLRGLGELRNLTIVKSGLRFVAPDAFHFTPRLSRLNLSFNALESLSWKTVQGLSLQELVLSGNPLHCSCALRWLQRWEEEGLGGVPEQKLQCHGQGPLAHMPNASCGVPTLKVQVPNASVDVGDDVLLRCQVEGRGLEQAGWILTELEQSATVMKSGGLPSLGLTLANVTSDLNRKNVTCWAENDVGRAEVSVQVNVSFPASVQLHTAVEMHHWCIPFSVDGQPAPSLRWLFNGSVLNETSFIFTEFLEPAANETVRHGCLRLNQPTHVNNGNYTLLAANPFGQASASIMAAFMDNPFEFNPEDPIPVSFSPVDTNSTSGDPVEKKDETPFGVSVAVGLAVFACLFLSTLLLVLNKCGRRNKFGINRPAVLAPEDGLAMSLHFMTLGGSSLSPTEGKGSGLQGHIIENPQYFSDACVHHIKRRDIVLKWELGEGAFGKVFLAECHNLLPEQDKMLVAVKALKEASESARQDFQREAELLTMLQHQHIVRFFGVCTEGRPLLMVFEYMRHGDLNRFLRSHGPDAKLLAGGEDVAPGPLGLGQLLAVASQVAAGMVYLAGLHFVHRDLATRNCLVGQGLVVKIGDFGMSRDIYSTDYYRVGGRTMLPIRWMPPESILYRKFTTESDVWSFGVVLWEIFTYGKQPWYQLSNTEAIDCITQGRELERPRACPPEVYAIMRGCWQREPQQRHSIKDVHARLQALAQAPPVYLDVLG
Chain of Misshapen-like kinase 1 (Homo sapiens) (Q8N4C8 whole entry, looked up, the tested form may be a part): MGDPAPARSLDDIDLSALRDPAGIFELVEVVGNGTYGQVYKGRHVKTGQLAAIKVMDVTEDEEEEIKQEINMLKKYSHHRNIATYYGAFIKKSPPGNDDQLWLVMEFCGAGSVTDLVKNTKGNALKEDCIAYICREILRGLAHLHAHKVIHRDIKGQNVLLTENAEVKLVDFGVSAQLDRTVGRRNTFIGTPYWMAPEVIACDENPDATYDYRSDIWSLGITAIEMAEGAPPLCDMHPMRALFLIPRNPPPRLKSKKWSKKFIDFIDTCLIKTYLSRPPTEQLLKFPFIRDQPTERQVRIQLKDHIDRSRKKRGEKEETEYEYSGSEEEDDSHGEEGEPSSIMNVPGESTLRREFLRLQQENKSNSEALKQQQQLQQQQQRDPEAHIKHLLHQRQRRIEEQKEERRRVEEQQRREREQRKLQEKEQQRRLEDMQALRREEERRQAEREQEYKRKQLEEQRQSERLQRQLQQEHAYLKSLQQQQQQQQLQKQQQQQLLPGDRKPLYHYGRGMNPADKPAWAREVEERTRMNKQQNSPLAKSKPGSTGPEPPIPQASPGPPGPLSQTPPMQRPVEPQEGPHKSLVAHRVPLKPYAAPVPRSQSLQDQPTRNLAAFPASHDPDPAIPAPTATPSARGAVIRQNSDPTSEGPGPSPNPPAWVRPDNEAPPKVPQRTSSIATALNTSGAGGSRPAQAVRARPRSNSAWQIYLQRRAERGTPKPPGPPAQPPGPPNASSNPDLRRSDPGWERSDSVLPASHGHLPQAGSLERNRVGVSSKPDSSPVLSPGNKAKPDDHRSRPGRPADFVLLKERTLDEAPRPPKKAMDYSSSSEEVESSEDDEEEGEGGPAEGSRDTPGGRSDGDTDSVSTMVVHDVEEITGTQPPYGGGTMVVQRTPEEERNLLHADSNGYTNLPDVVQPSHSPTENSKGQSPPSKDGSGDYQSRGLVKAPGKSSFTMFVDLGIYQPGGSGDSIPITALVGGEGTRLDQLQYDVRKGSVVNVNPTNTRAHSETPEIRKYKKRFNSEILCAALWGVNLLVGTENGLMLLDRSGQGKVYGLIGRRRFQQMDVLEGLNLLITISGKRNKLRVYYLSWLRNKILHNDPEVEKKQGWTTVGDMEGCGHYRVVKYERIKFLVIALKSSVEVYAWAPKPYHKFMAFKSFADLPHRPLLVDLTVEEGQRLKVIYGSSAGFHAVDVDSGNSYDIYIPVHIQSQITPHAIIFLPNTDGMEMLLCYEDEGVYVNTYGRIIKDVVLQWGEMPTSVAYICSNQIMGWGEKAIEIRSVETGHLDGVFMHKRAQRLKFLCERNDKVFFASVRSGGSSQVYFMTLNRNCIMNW

| SMILES | inhibition [1] | residual activity [2] | residual activity [3] | residual activity [4] | residual activity [5] | residual activity [6] | residual activity [7] | residual activity [8] | residual activity [9] | residual activity [10] | residual activity [11] | residual activity [12] | residual activity [13] | residual activity [14] |
| --- | --- | --- | --- | --- | --- | --- | --- | --- | --- | --- | --- | --- | --- | --- |
| Cc1cc(-c2cnc(N)c3c(-c4ccc5scnc5c4)csc23)n(C)n1 | 84.7% | 19.5% | 65.6% | 103% | 88.2% | 87.7% | 106% | 94.8% | 74.7% | 97.3% | 103% | 86% | 96.8% | 97.4% |
| CC(C)S(=O)(=O)c1ccc2nccc(Nc3ccc4scnc4c3)c2c1 | 89.3% | 94.6% | 93% | 96% | 96.5% | 99.9% | 85.2% | 87.7% | 97.6% | 89.6% | 96.3% | 99.9% | 85% | 97.8% |
| CNC(=O)c1ccc2c(c1)ncn2-c1ccc(CC(=O)OC(C)(C)C)cc1 | 79.5% | 91.8% | 72.9% | 97.1% | 105% | 102% | 108% | 104% | 95.4% | 94% | 96.2% | 93.1% | 72.5% | 98.2% |
